Test results published in article PMC6385020 (Molecules, 2019).
Where “and” joins values, the source holds several entries; their conditions need not be identical. Equal entries are not always repeated.

Legend:
[1] = tested on: G4-DNA structures (F-21-T, F-myc-T, F-21CTA-T, F-CEB25-WT-T); test: FRET-melting assay (ligand-induced stabilization); assay type: binding, human; settings: 1 µM ligand, 0.2 µM DNA, all G4-DNA structures, K+1 or K+10 buffer
Description: (§1) For the G4-FID assay, the oligonucleotides were dissolved in K^+100 buffer (10 mM lithium cacodylate buffer pH 7.3, 100 mM KCl, 1% DMSO). Oligonucleotide concentrations were determined on the basis of their absorbance at 260 nm. For the fluorimetric titration, the oligonucleotides were dissolved in K^+100 buffer without DMSO. For the FRET-melting assay, the oligonucleotides were dissolved in K^+1 buffer (10 mM lithium cacodylate buffer pH 7.3, 1 mM KCl, 99 mM LiCl) except for F-21-T. F-21-T was dissolved in K^+10 buffer (10 mM lithium cacodylate buffer pH 7.3, 10 mM KCl, 90 mM LiCl).
(§2) Prior to use, all oligonucleotides were pretreated by heating at 95 °C for 5 min, then rapidly cooled to 4 °C to favor the intramolecular folding by kinetic trapping. Duplex-DNA ds26 was prepared by heating the self-complementary strand at 90 °C for 5 min in K^+1 buffer followed by a slow cooling over 6 h.
The stabilization of the compounds with a quadruplex-structure was monitored via FRET-melting assay performed in 96-well plates on a real-time PCR apparatus 7900HT Fast Real-Time PCR System as follows: 5 min at 25 °C and then an increase of 0.5 °C every minute until 95 °C. Each experimental condition was tested and replicated in a volume of 25 μL for each sample. The FRET-melting assay was performed with three dual fluorescently labeled DNA oligonucleotide sequences oligonucleotides. The donor fluorophore was 6-carboxyfluorescein, FAM, and the acceptor fluorophore was 6-carboxytetramethylrhodamine, TAMRA. The 96-well plates (Applied Biosystems) were prepared by aliquoting the annealed DNA (0.2 μM in K^+1 or K^+10 buffer) into each well, followed by 1 μL of the ligand ([…] (5 eq) in DMSO). For competition experiments, duplex competitors were added to 200 nM quadruplex sequences at final concentrations of 3.0 μM (15 eq) and 10.0 μM (50 eq), with a total reaction volume of 25 μL, with the labeled oligonucleotide (0.2 μM) and the ligand (1 μM). Measurements were made with excitation at 492 nm and detection at 516 nm. The change in the melting temperature at 1.0 μm compound concentration, ΔTm (1.0 μM), was calculated from at least two experiments by subtraction of the blank from the averaged melting temperature of each compound (1.0 μM). The final analysis of the data was carried out using Origin Pro 8.6 data analysis.

[2] = tested on: A2780cis cisplatin-resistant ovarian cancer cell line; test: Cell growth (proliferation), 96 h treatment; assay type: cell-based, human; settings: 96 h treatment; for IC50: A2780cis
Description: (§3) The ovarian carcinoma cell lines and human normal lung cells were purchased from ATCC and were grown in complete RPMI medium (ovarian) and DMEM (human lung cells) supplemented with 10% fetal calf serum, in the presence of penicillin, streptomycin. The resistance of A2780cis cells to cisplatin was maintained by monthly treatment with 1 µM cisplatin for 4 days. Concentrated stock solutions of complexes were conserved at −20 °C (DMSO/Water) and freshly diluted in water just before the experiments. Cells were treated with various concentrations of platinum complexes at 37 °C under humidity and 5% CO2 conditions for 96 h. Cellular growth was quantified using the particle counter MOXI (VWR).

[3] = tested on: CCD19Lu normal lung cell line; test: Cell growth (proliferation), 96 h treatment; assay type: cell-based, human
Description: as §3

[4] = tested on: A2780 ovarian cancer cell line; test: Cell growth (proliferation), 96 h treatment; assay type: cell-based, human; settings: A2780, 96 h treatment
Description: as §3

[5] = tested on: 21CTA human telomeric sequence variant G4; assay type: binding; settings: K+100 buffer; for % of TOPRO3 displacement at 1 µM of ligand: TO-PRO-3 2 eq; for % of TO displacement at 1 µM of ligand: TO 2 eq
Description: as §1, §2
(§4) Each G4-FID assay was performed in a 96-well Non-Binding Surface black with black bottom polystyrene microplates (Corning). Every ligand was tested on a line of the microplate, in duplicate. The microplate was filled with (a) K^+100 solution (qs for 200 μL), (b) 10 μL of a solution of pre-folded oligonucleotides (5 μM) and fluorescent probe (TO/TO-PRO-3 (10 μM—2 eq) or PhenDV (7,5 µM—1.5 eq)), and (c) an extemporaneously prepared 5 μM ligand solution in K^+100 buffer (0 to 100 μL) along the line of the microplate, i.e., from column A to column H: 0, 0.125, 0.25, 0.375, 0.5, 0.625, 0.75, 1.0, 1.25, 1.5, 2.0, and 2.5 μM. After 5 min of orbital shaking at 500 rpm, fluorescence is measured using the following experimental parameters: positioning delay of 0.5 s, 20 flashes per well, emission/excitation filters for TO at 485/520, TO-PRO-3 at 620/670, and PhenDV at 355/520 gain adjusted at 80% of the fluorescence from the most fluorescent well (i.e., a well from column A for TO and a well from column H).
(§5) The percentage of TO displacement is calculated from the fluorescence intensity (F), using (1) % TO displacement=1−F/F0 where F0 is the fluorescence from the fluorescent probe bound to DNA without added ligand.
(§6) The PhenDV displacement is calculated from the fluorescence intensity F; F(ligand+probe), which refers to the fluorescence of the probe in presence of the ligand (without G4); and F0, which is the fluorescence without added ligand. The term F(ligand+probe) is necessary as the ligand can quench the fluorescence of the probe. The percentage of displacement is then plotted as a function of the concentration of the added ligand. The DNA affinity was evaluated by the concentration of ligand required to decrease the fluorescence of the probe by 50%, was noted DC50, and was determined after non-linear fitting of the displacement curve.

duplex ds26 DNA = test: TO G4-FID assay; assay type: binding; settings: ds26, K+100 buffer
Description: as §1, §2
Each G4-FID assay was performed in a 96-well Non-Binding Surface black with black bottom polystyrene microplates (Corning). Every ligand was tested on a line of the microplate, in duplicate. […] After 5 min of orbital shaking at 500 rpm, fluorescence is measured using the following experimental parameters: positioning delay of 0.5 s, 20 flashes per well, emission/excitation filters for TO at 485/520, TO-PRO-3 at 620/670, and PhenDV at 355/520 gain adjusted at 80% of the fluorescence from the most fluorescent well (i.e., a well from column A for TO and a well from column H).
as §5
The PhenDV displacement is calculated from the fluorescence intensity F; F(ligand+probe), which refers to the fluorescence of the probe in presence of the ligand (without G4); and F0, which is the fluorescence without added ligand. The term F(ligand+probe) is necessary as the ligand can quench the fluorescence of the probe. […]

[6] = tested on: 21CTA (DNA, G4) AGGGCTAGGGCTAGGGCTAGGG; test: G4-FID, thiazole orange displacement; settings: 100 mM KCl; 10 mM lithium cacodylate pH 7.3, 1% DMSO; thiazole orange displaced; 1 µM compound, 0.25 µM DNA
[7] = tested on: 21CTA human telomeric sequence variant G4; assay type: binding; settings: PhenDV 1.5 eq, K+100 buffer
Description: as §1, §2, §4
In the case of PhenDV, the fluorescence of the unbound probe is not negligible. The percentage of displacement becomes (2) % PhenDV Displacement=F−F0/Fligand+probe−F0
as §6

Row | Compound | ∆Tm (ligand-induced stabilization, FRET-melting) [1] [°C] | Resistance Factor (IC50ratio A2780cis/A2780) [2] | IC50 [2] [nM] | IC50 [3] [nM] | IC50 [4] [nM] | % of TOPRO3 displacement at 1 µM of ligand [5] [%] | % of TO displacement at 1 µM of ligand (duplex ds26 DNA) | % TO displacement [6] [%] | % of PhenDV displacement at 1 µM of ligand [7] [%] | % of TO displacement at 1 µM of ligand [5] [%]
1 | CN(C)c1ccc(/C=C/c2cc(-c3ccccn3)nc(-c3ccccn3)n2)cc1.[Cl-].[Cl][Pt+] [Pt-vpym, Chloro-(E)-4-(2-(2,6-di(pyridin-2-yl)pyrimidin-4-yl)vinyl)-N,N-dimethylaniline-platinum(II) Chloride] | < 10 | 0.6 | 400 | 700 | 700 | 32 | – | – | – | –
2 | Cc1ccc(-c2cc(-c3ccccn3)nc(-c3ccccn3)c2)cc1.[Cl-].[Cl][Pt+] [Pt-ttpy] | > 10 | 1.0 | 2500 | 1750 | 2500 | 62 | < 20% | > 80 | 90 | 87
3 | [Cl-].[Cl][Pt+].c1ccc(-c2cccc(-c3ccccn3)n2)nc1 [Pt-tpy] | < 10 | 1.6 | 5000 | 3000 | 3000 | 23 | – | – | 35 | 24
4 | CN(C)CCCNCc1ccc(-c2cc(-c3ccccn3)nc(-c3ccccn3)c2)cc1.[Cl-].[Cl][Pt+] [Pt-ctpy] | > 10 | 1.1 | 5000 | 5200 | 4600 | 83 | < 20% and 17% | > 80 | 100 | 93
5 | [Cl-].[Cl][Pt+].c1ccc(-c2cc(-c3ccc(OCCN4CCCC4)cc3)nc(-c3ccccn3)n2)nc1 [Pt-cpym, Chloro-(2,4-di(pyridin-2-yl)-6-(4-(2-(pyrrolidin-1-yl)ethoxy)phenyl)pyrimidine)-platinum(II) Chloride] | < 10 | 1.3 | 5000 | 1800 | 3800 | 25 | 2% | < 60 | 72 | 82
